In patent US20200362301A1, “EFFICIENT, SCALABLE PRODUCTION OF HUMAN RETINAL PROGENITORS IN VITRO” (Wisconsin Alumni Research Foundation, priority 2019, published 2020):

How the values were obtained:
Format in all cases: cell-based, human
[1] = tested on: wildtype cells (H9 hESCs) in retinal differentiation; assay: qPCR of retinal gene (EFTF) expression in wildtype cells during retinal differentiation under WNT agonist/antagonist
Method: WNT8B has a restricted expression in the developing dorsal forebrain (Lako et al., 1998) and plays a repressive role in retinal fate specification (Liu et al., 2010). […] Given the direct connection between PAX6D and WNT8B, we hypothesized that PAX6D regulates retinal specification by repressing WNT8B transcription and thus WNT activity. Indeed, treatment with WNT agonist (CHIR99021, 3 μM) in wildtype cells from day 0 to day 10 suppressed the expression EFTFs. In contrast, treatment with a WNT antagonist (IWR1, 2.5 μM) in wildtype cells enhanced the expression of EFTFs (FIG. 8B).
(§1) Retinal differentiation from human pluripotent stem cells was performed using the published protocol (Zhong et al., 2014). Briefly, hESCs were passaged to Vitronectin-coated plates and cultured to 60-70% confluency. On day 0 of retinal differentiation, cells were enzymatically detached by dispase (1 mg/ml) and cultured in suspension with E8 medium to form embryoid bodies (EB). […]
(§2) Total RNA was isolated with the RNeasy Plus Mini Kit according to the manufacturer's instructions. For quantitative PCR (qPCR), cDNA was synthesized using PrimeScrip RT Reagent Kit. qPCR was performed using iTaq Universal SYBR Green Supermix. […]

PAX6D TetOn cells [2] = assay: qPCR of retinal gene expression in PAX6D TetOn cells with DOX induction, with or without WNT agonist
Description: (§3) We then examined the retinal progenitor population when PAX6A or PAX6D was induced. We turned on PAX6A and PAX6D separately in PAX6 KO cells after neuroepithelial cells were generated at day 6 and monitored the retinal progenitor generation along retinal differentiation. […] Thus, PAX6D but not PAX6A restores the PAX6 function in retinal specification.
(§4) We then asked if the failure of retinal specification in the PAX6D KO cells is rescued by regulating WNT signaling. Treatment of the PAX6D KO cells with IWR1 during retinal differentiation from day 0 to day 10 increased the expression of retinal related genes, including VSX2, LHX2, HES5, SIX3 and SIX6 (FIG. 8C). […] To further corroborate the role of WNTs in mediating the function of PAX6D in retinal specification, we then activated WNT pathway signaling under PAX6D induction along retinal differentiation.
(§5) PAX6 KO and PAX6D KO cell lines were designed by inserting the PGK-Puromycin in exon 8 and exon alpha of the PAX6 gene, respectively, which terminates the normal translation of PAX6 genes early and PAX6D isoform specifically. The PAX6 KO cells were then used to generate PAX6A TetOn and PAX6D TetOn by inserting the TetOn-PAX6A-3×FLAG and TetOn-PAX6D-3×FLAG into the AAVS1 site of PAX6 KO genome.
as §1, with “(EB). EBs were gradually transitioned into neural induction medium (NIM) containing DMEM/F12 (1:1), 1% N2 and 1×NEAA by replacing the medium with a 3:1 ratio of E8/NIM on day 1, 1:1 on day 2, and 100% NIM on day 3.” for “(EB).”
as §2

PAX6D KO cells = assay: qPCR of retinal gene expression in PAX6D KO cells treated with WNT antagonist (rescue of retinal differentiation); details: treatment from day 0 to day 10 of retinal differentiation
Description: as §4, §5
Retinal differentiation from human pluripotent stem cells was performed using the published protocol (Zhong et al., 2014). Briefly, hESCs were passaged to Vitronectin-coated plates and cultured to 60-70% confluency. […]
as §2

PAX6D TetOn cells [3] = assay: Flow cytometry of SOX1-/SOX2+ retinal progenitor population in PAX6D TetOn cells; details: PAX6D induced (from 2.71% without induction)
Method: as §3
(§6) Flow cytometry was performed using Transcription Factor Buffer Set which is designed for transcription factor staining following manufacturer's instruction. Briefly, single cells were prepared using TrypLE Express Enzyme and fixed in the fixation buffer provided by the kit at 2-8° C. for 45 min. After 3 washings with the permeable buffer, the primary antibodies (PE-SOX1, V450-SOX2) were added to cells for 45 min at 2-8° C. in a light-tight box. The cells were washed 3 times before analyzed by flow cytometry (BD LSR or BD LSRII). Data analysis was performed using FlowJo.

PAX6A TetOn cells = assay: Flow cytometry of SOX1-/SOX2+ retinal progenitor population in PAX6A TetOn cells; details: PAX6A induced (from 2.45% without induction)
Method: as §3, §6

[4] = PAX6D TetOn in PAX6 KO, DOX for 7 days from day 6 of retinal differentiation

## Cc1c[nH]c(-c2cnc(NCCNc3ccc(C#N)cn3)nc2-c2ccc(Cl)cc2Cl)n1 [CHIR99021]
[1]; WNT agonist 3 μM from day 0 to day 10 of retinal differentiation
  expression of EFTFs (qPCR): suppressed
PAX6D TetOn cells [2]; PAX6D TetOn cells induced by DOX, WNT agonist from day 0 to day 10
  PAX6D-induced retinal differentiation (expression of VSX2, LHX2, SIX6, NR2F1 and VAX2 at day 10): completely blocked

## O=C(Nc1cccc2cccnc12)c1ccc(N2C(=O)[C@@H]3[C@H](C2=O)[C@@H]2C=C[C@H]3C2)cc1 [IWR1]
[1]; WNT antagonist 2.5 μM
  expression of EFTFs (qPCR): enhanced
PAX6D KO cells
  expression of retinal related genes, including VSX2, LHX2, HES5, SIX3 and SIX6: increased

## C[C@H]1c2cccc(O)c2C(=O)C2=C(O)[C@]3(O)C(=O)C(C(N)=O)=C(O)[C@@H](N(C)C)[C@@H]3[C@@H](O)[C@@H]21 [DOX, doxycycline]
PAX6D TetOn cells [3]
  SOX1-/SOX2+ retinal progenitor population (flow cytometry): 23.1%
PAX6A TetOn cells
  SOX1-/SOX2+ retinal progenitor population (flow cytometry): 2.22%
PAX6D TetOn cells [2]; [4]
  VAX2 expression increase: 2 fold
  VSX2 expression increase: 3 fold
